In US8138168B1 (Takeda Pharmaceutical Company Limited, priority 2007, dated 2012):

Biological target: T1, Recombinant human renin (Homo sapiens, UniProt P00797)
T1 construct: isolate the active form (residues 67-406); made in house; host or cells: FreeStyle 293-F cells (transient expression of pcDNA3.1(+)/hREN)
T1 sequence (P00797 67-406): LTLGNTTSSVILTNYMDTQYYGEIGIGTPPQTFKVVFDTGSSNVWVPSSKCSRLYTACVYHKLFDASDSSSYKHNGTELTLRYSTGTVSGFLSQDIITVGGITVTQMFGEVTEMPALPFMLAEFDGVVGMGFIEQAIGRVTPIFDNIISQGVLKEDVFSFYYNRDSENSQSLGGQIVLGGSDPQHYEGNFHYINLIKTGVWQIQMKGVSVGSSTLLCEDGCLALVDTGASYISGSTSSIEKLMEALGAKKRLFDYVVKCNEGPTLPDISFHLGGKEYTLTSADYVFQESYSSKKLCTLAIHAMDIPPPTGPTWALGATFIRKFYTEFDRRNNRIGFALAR
Assay: In vitro enzymatic activity assay of renin inhibitors (fluorogenic peptide substrate)
Type: biochemical
Conditions: read-out: IC50 of Exemplified Compounds Against Renin
Outline: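 Recombinant human renin (3 nM final) pre-incubated 10 min at 37 °C with compounds in pH 7.4 Hepes/EDTA/DTT/0.1 mg/mL BSA/Brij35 buffer (optionally plus 2% BSA), 5% DMSO final; fluorogenic QXL520/HiLyteFluo488 peptide substrate added.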

| Compound | IC50 |
| --- | --- |
| O=C(C1CCCNC1)N1CCCC(c2nc3ccccc3[nH]2)C1 (stereo not drawn) [Compound 52, (3-(1H-benzo[d]imidazol-2-yl)piperidin-1-yl)(piperidin-3-yl)methanone] | > 1 µM |
| COCCCn1c([C@@H]2CCCN(C(=O)C[C@H](N)CNC(=O)Nc3ccccc3C(C)(C)C)C2)nc2ccccc21 [Compound 302, 1-((S)-2-amino-4-((R)-3-(1-(3-methoxypropyl)-1H-benzo[d]imidazol-2-yl)piperidin-1-yl)-4-oxobutyl)-3-(2-tert-butylphenyl)urea] | 0.1 to 1 µM |
| COCCCn1c([C@@H]2CCCN(C(=O)[C@@H]3CN(S(=O)(=O)c4ccc5c(c4)OCCO5)C[C@H]3N)C2)nc2ccccc21 [Compound 337, ((3R,4S)-4-amino-1-(2,3-dihydrobenzo[b][1,4]dioxin-6-ylsulfony)pyrrolidin-3-yl)((R)-3-(1-(3-methoxypropyl)-1H-benzo[d]imidazol-2-yl)piperidin-1-yl)methanone] | > 1 µM |
| COCCCn1c([C@@H]2CCCN(C(=O)[C@H](O)[C@H](N)c3ccccc3)C2)nc2ccccc21 [Compound 92, (2R,3R)-3-amino-2-hydroxy-1-((R)-3-(1-(3-methoxypropyl)-1H-benzo[d]imidazol-2-yl)piperidin-1-yl)-3-phenylpropan-1-one] | 0.1 to 1 µM |
| COCCCn1c([C@@H]2CCCN(C(=O)[C@@H]3CN(C(=O)C4CCCC4)C[C@H]3N)C2)nc2ccccc21 [Compound 395, ((3R,4S)-4-amino-1-(cyclopentanecarbonyl)pyrrolidin-3-yl)((R)-3-(1-(3-methoxypropyl)-1H-benzo[d]imidazol-2-yl)piperidin-1-yl)methanone] | > 1 µM |
| COCCCn1c([C@@H]2CCCN(C(=O)C[C@H](N)CNC(=O)Nc3ccc(OC)cc3C)C2)nc2ccccc21 [Compound 292, 1-((S)-2-amino-4-((R)-3-(1-(3-methoxypropyl)-1H-benzo[d]imidazol-2-yl)piperidin-1-yl)-4-oxobutyl)-3-(4-methoxy-2-methylphenyl)urea] | 0.1 to 1 µM |
| COCCCn1c([C@@H]2CCCN(C(=O)[C@@H]3CN(C(=O)NC4CCCC4)C[C@H]3N)C2)nc2ccccc21 [Compound 399, (3S,4R)-3-amino-N-cyclopentyl-4-((R)-3-(1-(3-methoxypropyl)-1H-benzo[d]imidazol-2-yl)piperidine-1-carbonyl)pyrrolidine-1-carboxamide] | > 1 µM |
| COCCCn1c([C@@H]2CCCN(C(=O)[C@@H]3CN(S(=O)(=O)c4cc(C)ccc4OC)C[C@H]3N)C2)nc2ccccc21 [Compound 410, ((3R,4S)-4-amino-1-(2-methoxy-5-methylphenylsulfonyl)pyrrolidin-3-yl)((R)-3-(1-(3-methoxypropyl)-1H-benzo[d]imidazol-2-yl)piperidin-1-yl)methanone] | > 1 µM |
| COCCCn1c([C@@H]2CCCN(C(=O)[C@@H]3CN(C(=O)c4ccccc4C(=O)OC)C[C@H]3N)C2)nc2ccccc21 [Compound 424, methyl 2-((3S,4R)-3-amino-4-((R)-3-(1-(3-methoxypropyl)-1H-benzo[d]imidazol-2-yl)piperidine-1-carbonyl)pyrrolidine-1-carbonyl)benzoate] | > 1 µM |
| COCCCn1c([C@@H]2CCCN(C(=O)C[C@H](N)CNS(=O)(=O)c3ccc(Cl)c(Cl)c3)C2)nc2ccccc21 [Compound 305, N-((S)-2-amino-4-((R)-3-(1-(3-methoxypropyl)-1H-benzo[d]imidazol-2-yl)piperidin-1-yl)-4-oxobutyl)-3,4-dichlorobenzenesulfonamide] | 0.1 to 1 µM |
| COCCCn1c([C@@H]2CCCN(C(=O)C[C@H](N)CNC(=O)c3ccccc3OC)C2)nc2ccccc21 [Compound 327, N-((S)-2-amino-4-((R)-3-(1-(3-methoxypropyl)-1H-benzo[d]imidazol-2-yl)piperidin-1-yl)-4-oxobutyl)-2-methoxybenzamide] | > 1 µM |

More lines, now with the values ahead:

| IC50 | Compound |
| --- | --- |
| < 0.1 µM | COCCCn1c([C@@H]2CCCN(C(=O)C[C@H](N)Cc3ccc(-c4ccc(N5CCOCC5)cc4)cc3)C2)nc2ccccc21 [Compound 128, (R)-3-amino-1-((R)-3-(1-(3-methoxypropyl)-1H-benzo[d]imidazol-2-yl)piperidin-1-yl)-4-(4′-morpholinobiphenyl-4-yl)butan-1-one] |
| < 0.1 µM | COCCCn1c([C@@H]2CCCN(C(=O)C[C@H](N)Cc3ccc(Oc4ccccc4)cc3)C2)nc2ccccc21 [Compound 238, (R)-3-amino-1((R)-3-(1-(3-methoxypropyl)-1H-benzo[d]imidazol-2-yl)piperidin-1-yl)-4-(4-phenoxyphenyl)butan-1-one] |
| > 1 µM | COCCCn1c([C@@H]2CCCN(C(=O)C[C@H](N)Cc3ccc4ccccc4c3)C2)nc2ccc([N+](=O)[O-])cc21 [Compound 114, (R)-3-amino-1-((R)-3-(1-(3-methoxypropyl)-6-nitro-1H-benzo[d]imidazol-2-yl)piperidin-1-yl)-4-(naphthalen-2-yl)butan-1-one] |
| 0.1 to 1 µM | COCCCn1c([C@@H]2CCCN(C(=O)C[C@H](N)Cc3ccc4ccccc4c3)C2)nc2ccc(Cl)cc21 [Compound 99, (R)-3-amino-1-((R)-3-(6-chloro-1-(3-methoxypropyl)-1H-benzo[d]imidazol-2-yl)piperidin-1-yl)-4-(naphthalen-2-yl)butan-1-one] |
| > 1 µM | COCCCn1c([C@@H]2CCCN(C(=O)C[C@H](N)Cc3ccncc3)C2)nc2ccccc21 [Compound 78, (R)-3-amino-1-((R)-3-(1-(3-methoxypropyl)-1H-benzo[d]imidazol-2-yl)piperidin-1-yl)-4-(pyridin-4-yl)butan-1-one] |
| 0.1 to 1 µM | COCCCn1c([C@@H]2CCCN(C(=O)C[C@H](N)CNC(=O)c3cccc(Cl)c3)C2)nc2ccccc21 [Compound 298, N-((S)-2-amino-4-((R)-3-(1-(3-methoxypropyl)-1H-benzo[d]imidazol-2-yl)piperidin-1-yl)-4-oxobutyl)-3-chlorobenzamide] |
| < 0.1 µM | COCCCn1c([C@@H]2CCCN(C(=O)C[C@H](N)Cc3ccc(-c4ccc(C(=O)N5CCOCC5)cc4)cc3)C2)nc2ccccc21 [Compound 127, (R)-3-amino-1-((R)-3-(1-(3-methoxypropyl)-1H-benzo[d]imidazol-2-yl)piperidin-1-yl)-4-(4′-(morpholine-4-carbonyl)biphenyl-4-yl)butan-1-one] |
| < 0.1 µM | COCCCn1c([C@@H]2CCCN(C(=O)C[C@H](N)Cc3ccc(-c4ccc(C(=O)NCCOC)cc4)cc3)C2)nc2ccccc21 [Compound 177, 4′-((R)-2-amino-4-((R)-3-(1-(3-methoxypropyl)-1H-benzo[d]imidazol-2-yl)piperidin-1-yl)-4-oxobutyl)-N-(2-methoxyethyl)biphenyl-4-carboxamide] |
| 0.1 to 1 µM | COCCCn1c([C@@H]2CCCN(C(=O)C[C@H](N)CNC(=O)c3cccc4ccccc34)C2)nc2ccccc21 [Compound 311, N-((S)-2-amino-4-((R)-3-(1-(3-methoxypropyl)-1H-benzo[d]imidazol-2-yl)piperidin-1-yl)-4-oxobutyl)-1-naphthamide] |
| > 1 µM | COCCCn1c([C@@H]2CCCN(C(=O)[C@@H]3CN(C(=O)c4ccc(Cl)cc4)C[C@H]3N)C2)nc2ccccc21 [Compound 416, ((3R,4S)-4-amino-1-(4-chlorobenzoyl)pyrrolidin-3-yl)((R)-3-(1-(3-methoxypropyl)-1H-benzo[d]imidazol-2-yl)piperidin-1-yl)methanone] |
